# In ChEMBL document CHEMBL1201862, “PubChem BioAssay data set” (2004):
# Activity calls are given as the source filed them.
# How the values were obtained:
# [1] = biological target: T1, Apoptotic protease-activating factor 1 (Homo sapiens, UniProt O14727); format: functional
# T1 sequence (O14727 whole entry): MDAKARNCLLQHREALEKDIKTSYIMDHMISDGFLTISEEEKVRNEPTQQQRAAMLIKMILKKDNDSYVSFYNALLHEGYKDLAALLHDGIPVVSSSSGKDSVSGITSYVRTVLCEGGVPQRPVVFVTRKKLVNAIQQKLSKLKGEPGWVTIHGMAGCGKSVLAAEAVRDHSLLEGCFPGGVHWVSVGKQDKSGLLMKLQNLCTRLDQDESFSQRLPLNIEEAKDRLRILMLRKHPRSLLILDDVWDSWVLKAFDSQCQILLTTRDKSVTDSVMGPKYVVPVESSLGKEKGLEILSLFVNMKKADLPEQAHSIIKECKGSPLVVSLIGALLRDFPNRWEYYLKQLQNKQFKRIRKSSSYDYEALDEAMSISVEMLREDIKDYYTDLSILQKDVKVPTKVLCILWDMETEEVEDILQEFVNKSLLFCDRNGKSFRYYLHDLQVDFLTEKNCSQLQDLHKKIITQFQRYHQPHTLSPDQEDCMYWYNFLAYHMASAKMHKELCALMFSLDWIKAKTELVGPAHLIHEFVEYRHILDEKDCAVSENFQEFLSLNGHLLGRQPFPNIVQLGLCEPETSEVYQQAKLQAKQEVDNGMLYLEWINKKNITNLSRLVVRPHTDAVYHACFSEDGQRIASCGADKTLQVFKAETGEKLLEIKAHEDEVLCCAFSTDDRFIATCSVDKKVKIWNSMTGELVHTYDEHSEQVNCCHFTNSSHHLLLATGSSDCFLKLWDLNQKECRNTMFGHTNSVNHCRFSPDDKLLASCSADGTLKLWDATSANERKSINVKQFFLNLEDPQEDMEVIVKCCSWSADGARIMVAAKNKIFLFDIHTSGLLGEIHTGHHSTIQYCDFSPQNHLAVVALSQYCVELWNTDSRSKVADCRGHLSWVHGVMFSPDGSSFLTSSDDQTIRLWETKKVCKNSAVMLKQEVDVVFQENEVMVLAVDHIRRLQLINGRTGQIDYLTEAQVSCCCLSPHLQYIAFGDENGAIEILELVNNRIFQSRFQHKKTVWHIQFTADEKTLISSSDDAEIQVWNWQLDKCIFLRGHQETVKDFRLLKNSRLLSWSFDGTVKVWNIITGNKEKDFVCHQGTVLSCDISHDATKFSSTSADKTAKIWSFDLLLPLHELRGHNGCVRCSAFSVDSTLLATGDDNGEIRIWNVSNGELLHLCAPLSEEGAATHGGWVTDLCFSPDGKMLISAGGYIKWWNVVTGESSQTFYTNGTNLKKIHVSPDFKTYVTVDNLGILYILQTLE
# [2] = biological target: T2, Histone-lysine N-methyltransferase NSD2 (Homo sapiens, UniProt O96028); format: biochemical
# T2 sequence (O96028 whole entry): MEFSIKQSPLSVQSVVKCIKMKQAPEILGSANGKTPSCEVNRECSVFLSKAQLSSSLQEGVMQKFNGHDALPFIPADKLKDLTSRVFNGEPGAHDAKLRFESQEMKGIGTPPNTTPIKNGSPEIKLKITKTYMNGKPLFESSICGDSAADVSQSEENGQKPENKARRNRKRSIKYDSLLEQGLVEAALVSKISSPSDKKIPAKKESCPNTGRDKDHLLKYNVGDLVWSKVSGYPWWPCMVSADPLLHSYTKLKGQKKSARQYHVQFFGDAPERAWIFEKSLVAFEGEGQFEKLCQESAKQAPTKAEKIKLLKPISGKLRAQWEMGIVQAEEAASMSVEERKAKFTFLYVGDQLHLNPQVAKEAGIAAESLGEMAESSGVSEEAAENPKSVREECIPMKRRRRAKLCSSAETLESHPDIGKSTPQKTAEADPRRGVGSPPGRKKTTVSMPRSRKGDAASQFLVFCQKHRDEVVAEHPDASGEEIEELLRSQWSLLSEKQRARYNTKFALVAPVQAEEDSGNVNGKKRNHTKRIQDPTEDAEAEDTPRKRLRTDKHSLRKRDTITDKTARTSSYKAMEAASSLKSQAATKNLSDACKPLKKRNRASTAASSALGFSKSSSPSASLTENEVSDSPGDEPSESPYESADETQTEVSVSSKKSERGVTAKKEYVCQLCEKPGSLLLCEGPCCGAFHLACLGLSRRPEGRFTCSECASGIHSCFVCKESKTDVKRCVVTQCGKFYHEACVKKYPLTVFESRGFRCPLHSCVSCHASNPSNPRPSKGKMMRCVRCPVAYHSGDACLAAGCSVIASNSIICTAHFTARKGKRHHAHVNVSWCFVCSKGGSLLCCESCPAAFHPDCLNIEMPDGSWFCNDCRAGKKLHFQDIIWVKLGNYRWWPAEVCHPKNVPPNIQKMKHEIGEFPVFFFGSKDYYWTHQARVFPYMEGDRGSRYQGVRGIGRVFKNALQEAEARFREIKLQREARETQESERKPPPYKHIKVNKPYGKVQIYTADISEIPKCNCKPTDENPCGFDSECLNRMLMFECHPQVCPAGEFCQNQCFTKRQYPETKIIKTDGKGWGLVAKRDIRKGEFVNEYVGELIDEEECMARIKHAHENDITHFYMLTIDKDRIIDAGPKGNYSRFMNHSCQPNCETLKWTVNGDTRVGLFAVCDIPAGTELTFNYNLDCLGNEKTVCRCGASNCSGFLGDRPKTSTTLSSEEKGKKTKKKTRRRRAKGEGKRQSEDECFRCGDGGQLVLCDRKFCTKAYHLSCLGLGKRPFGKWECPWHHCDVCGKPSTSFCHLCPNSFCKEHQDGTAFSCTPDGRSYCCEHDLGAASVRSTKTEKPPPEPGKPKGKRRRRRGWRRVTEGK
# [3] = biological target: T3, Endoribonuclease toxin MazF (Escherichia coli K-12, UniProt P0AE70); assay: activation of MazEF endoribonuclease cleavage – biochemical, fluorescence, single-stranded RNA substrate, uHTS hits, dose response (AID 588481); format: functional
# T3 sequence (P0AE70 whole entry): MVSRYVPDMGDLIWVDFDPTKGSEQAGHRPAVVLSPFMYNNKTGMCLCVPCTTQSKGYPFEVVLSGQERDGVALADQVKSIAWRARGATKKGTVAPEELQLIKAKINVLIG
# [4] = biological target: T3, Endoribonuclease toxin MazF; assay: substrate-only fluorescence increase artefacts – biochemical, single-stranded RNase substrate, counter-screen for MazEF activator project, dose response (AID 588502); format: functional
SMILES,IC50 [1],AC50 [2],EC50 [3],EC50 [4]
CC(C)=CCC1=C(OCC(=O)O)C(=O)c2ccccc2C1=O,6.11 µM (active),3.99 µM (active),,
Cc1[nH][nH]c(=O)c1C(c1c(C)[nH][nH]c1=O)c1cn(Cc2ccccc2Cl)c2ccccc12,,17.8 µM (active),> 99 µM (inactive),> 99 µM (inactive)
Cc1cccc(NC2=C(NC(=O)c3ccccc3)C(=O)c3ccccc3C2=O)c1,13.4 µM (active),,,
